The values that follow come from ChEMBL document CHEMBL5241058, “Pyrazole-based analogs as potential antibacterial agents against methicillin-resistance staphylococcus aureus (MRSA) and its SAR elucidation” (Eur J Med Chem, 2021).

Common to all, as to format: functional
The test system of test [1] is Staphylococcus aureus. Put plainly: Antimicrobial activity against Methicillin-resistant Staphylococcus aureus CCARM 3506 assessed as bacterial growth inhibition incubated for 24 hrs by ELISA assay. In general terms: ELISA stands for enzyme-linked immunosorbent assay.
Test [2] has as its system Staphylococcus aureus. Put plainly: Antimicrobial activity against Methicillin-resistant Staphylococcus aureus assessed as bacterial growth inhibition incubated for 24 to 48 hrs by microdilution method. The following applies: time 24-48 hrs. In general terms: Dilution methods test growth across graded concentrations, often in twofold steps.
Test [3] relates to Staphylococcus aureus. Put plainly: Antimicrobial activity against vancomycin intermediate-resistant Staphylococcus aureus assessed as bacterial growth inhibition incubated for 24 hrs by microdilution method.
Test [4] has as its system Staphylococcus aureus. Put plainly: Antimicrobial activity against Staphylococcus aureus MTCC 442 assessed as bacterial growth inhibition incubated for 24 to 48 hrs. The following applies: time 24-48 hrs.
Test [5] deals with Staphylococcus aureus. Put plainly: Antimicrobial activity against Staphylococcus aureus MTCC 96 assessed as bacterial growth inhibition incubated for 24 to 48 hrs. The conditions noted are these: time 24-48 hrs.
In test [6] the test system is Staphylococcus aureus. Put plainly: Antimicrobial activity against Methicillin-resistant Staphylococcus aureus assessed as bacterial growth inhibition.
Another test deals with Klebsiella pneumoniae. Put plainly: Antimicrobial activity against Klebsiella pneumoniae ATCC 314588 assessed as bacterial growth inhibition incubated for 18 hrs by microdilution method.
The test system of test [7] is Salmonella enterica subsp. enterica. Put plainly: Antimicrobial activity against Salmonella typhimurium […] assessed as bacterial growth inhibition incubated for 18 hrs by microdilution method.
A further test deals with Pseudomonas aeruginosa. Put plainly: Antimicrobial activity against Pseudomonas aeruginosa ATCC 27853 assessed as bacterial growth inhibition incubated for 18 hrs by microdilution method.
Another test concerns Escherichia coli. Put plainly: Antimicrobial activity against Escherichia coli ATCC 8739 assessed as bacterial growth inhibition incubated for 18 hrs by microdilution method.
For test [8], the system named is Staphylococcus aureus. Put plainly: Antimicrobial activity against Methicillin-resistant Staphylococcus aureus ATCC 43300 assessed as bacterial growth inhibition incubated for 24 hrs by microdilution method. The conditions noted are these: ATCC43300.
Test [9] deals with Staphylococcus aureus. Put plainly: Antimicrobial activity against Methicillin-resistant Staphylococcus aureus ATCC 33599 assessed as bacterial growth inhibition.

Structures are written as SMILES. Converted amounts (≈) assume the structure as drawn.

As a reminder, the MIC is the smallest concentration in the dilution series that meets the test's criterion for growth inhibition. For orientation: MBC means the smallest concentration meeting the test's criterion for killing.

`Cc1nn(-c2ccc(Cl)cc2Cl)c(Oc2ccc(Cl)cc2)c1C1N=C(N)NC(NCCc2ccccc2)=N1` (stereo unspecified): the MIC in the test with Staphylococcus aureus [1] came to 0.5 µg/mL (≈ 0.879 µM).
Take `NC(=O)c1cnn(-c2ccc([N+](=O)[O-])cc2[N+](=O)[O-])c1NC(=O)c1ccccc1`: in the test on Staphylococcus aureus [2], the MIC was 75.3 µg/mL (≈ 190 µM).
For `O=C(c1cc(C(F)(F)F)n[nH]1)c1ccc(Cl)cc1O`, in the test with Staphylococcus aureus [3], the minimal inhibitory concentration (MIC) is less than 0.125 µg/mL.
The same measure, in the same setting: the result for `O=C(c1cc(C(F)(F)F)n[nH]1)c1cc(Br)ccc1O` reads less than 0.125 µg/mL.
`O=C(/C=C/c1cccc(F)c1)N1N=C(c2ccncc2)OC1c1cn(-c2ccccc2)nc1-c1ccc(F)cc1` (stereo unspecified): the MIC in the test with Staphylococcus aureus [4] and in the test with Staphylococcus aureus [5] was 25 µg/mL (≈ 46.9 µM) throughout.
`O=C(c1cc(C(F)(F)F)n[nH]1)c1cccc(Br)c1O`: in the test on Staphylococcus aureus [3], the MIC is less than 0.125 µg/mL.
For the compound `Cc1ccc(C(=O)Nc2c(C(N)=O)cnn2-c2ccc([N+](=O)[O-])cc2[N+](=O)[O-])cc1`, the MIC with Staphylococcus aureus [2] was 42 µg/mL (≈ 102 µM).
Turning to `CCn1ncc2c3c(C#N)c4ccccc4nc3ccc21`, the MIC in the test on Staphylococcus aureus [6] came out at 3 µg/mL (≈ 11 µM).
For the compound `O=C(c1cc(C(F)(F)F)n[nH]1)c1cc(Cl)ccc1O`, the MIC in the test on Staphylococcus aureus [3] is less than 0.125 µg/mL.
On to `Cn1ncc2c3c(C#N)c4ccccc4nc3ccc21`, for which the MIC in the test with Staphylococcus aureus [6] is 6 µg/mL (≈ 23.2 µM).
In the case of `CCCCn1ncc2c3c(C#N)c4ccccc4nc3ccc21`, the minimum inhibitory concentration (MIC) in the test on Staphylococcus aureus [6] was found to be 2 µg/mL (≈ 6.66 µM).
As to `Cc1nn(-c2ccc(Cl)cc2Cl)c(Oc2ccc3ccccc3c2)c1C1N=C(N)NC(NCCc2ccccc2)=N1` (stereo unspecified), the MIC in the test with Staphylococcus aureus [1] was determined as 0.5 µg/mL (≈ 0.855 µM).
As for `CC1(C)S[C@@H]2[C@H](NC(=O)Cc3ccccc3)C(=O)N2[C@H]1C(=O)O` [PENICILLIN G], the minimum inhibitory concentration (MIC) in the test on Staphylococcus aureus [6] was 0.06 µg/mL (≈ 0.179 µM).
In the case of `COc1cccc(-c2nn(-c3ccccc3)cc2-c2nc3ccccn3c2Cc2ccccc2)c1OC`, the MIC (with Klebsiella pneumoniae; in [7]; in the test on Pseudomonas aeruginosa; in the test with Escherichia coli) was less than 1 µg/mL in each case.
With `Cc1ccc(Oc2c(C3N=C(N)NC(NCCc4ccccc4)=N3)c(C)nn2-c2ccc(Cl)cc2Cl)c(C)c1` (stereo unspecified), in the test on Staphylococcus aureus [1], the MIC turned out to be 0.5 µg/mL (≈ 0.889 µM).
As for `Cc1nn(-c2ccc(Cl)cc2Cl)c(Oc2cccc(Br)c2)c1C1N=C(N)NC(NCCc2ccccc2)=N1` (stereo unspecified), the MIC with Staphylococcus aureus [1] worked out at 0.5 µg/mL (≈ 0.815 µM).
In the case of `O=C1CN(c2nnc(-c3cccc([N+](=O)[O-])c3)s2)C(c2cn(-c3ccccc3)nc2-c2cccc([N+](=O)[O-])c2)S1` (stereo unspecified), the MBC in the test on Staphylococcus aureus [6] amounted to 312 µg/mL (≈ 547 µM).
`NC(=O)c1cnn(-c2ccc([N+](=O)[O-])cc2[N+](=O)[O-])c1NC(=O)c1ccc([N+](=O)[O-])cc1`: the minimal inhibitory concentration (MIC) in the test with Staphylococcus aureus [2] turned out to be 4 µg/mL (≈ 9.06 µM).
For the compound `O=C1CN(c2nnc(-c3cccc(Br)c3)s2)C(c2cn(-c3ccccc3)nc2-c2cccc([N+](=O)[O-])c2)S1` (stereo unspecified), the MBC in the test on Staphylococcus aureus [6] is 156 µg/mL (≈ 258 µM).
In the case of `CC1=C(C(=O)O)N2C(=O)[C@@H](NC(=O)[C@H](N)c3ccccc3)[C@H]2SC1` [CEPHALEXIN ANHYDROUS], the minimum inhibitory concentration (MIC) in the test with Staphylococcus aureus [2] was determined as 72 µg/mL (≈ 207 µM).
As for `Cc1nn(-c2ccc(C#N)cc2)c2c1C(C(=O)O)CC=C(C(=O)O)N2` (stereo unspecified), the MIC in the test with Staphylococcus aureus [8] is more than 500 µg/mL.
As to `O=C(O)c1ccc(-n2cc(/C=N/c3ccc(Cl)cc3Cl)c(-c3ccc4ccccc4c3)n2)cc1`, in the test with Staphylococcus aureus [9], the MBC worked out at 6.25 µg/mL (≈ 12.9 µM) and the MIC came to 0.78 µg/mL (≈ 1.6 µM).
As to `Cc1nn(-c2ccc(Br)cc2)c2c1C(C(=O)O)CC=C(C(=O)O)N2` (stereo unspecified), the MIC with Staphylococcus aureus [8] was more than 500 µg/mL.
With `NC(=O)c1cnn(-c2ccc([N+](=O)[O-])cc2[N+](=O)[O-])c1NC(=O)c1cccc(Cl)c1`, the MIC in the test with Staphylococcus aureus [2] was 45.3 µg/mL (≈ 105 µM).
For `COc1ccc(C(=O)Nc2c(C(N)=O)cnn2-c2ccc([N+](=O)[O-])cc2[N+](=O)[O-])cc1`, the MIC with Staphylococcus aureus [2] is 10 µg/mL (≈ 23.5 µM).
`CC(=O)Nc1c(C(N)=O)cnn1-c1ccc([N+](=O)[O-])cc1[N+](=O)[O-]`: the MIC in the test with Staphylococcus aureus [2] stood at 99.4 µg/mL (≈ 297 µM).
As to `Clc1ccc(-c2nn(-c3ccccc3)cc2-c2nc3ccccn3c2Cc2ccccc2)cc1`, the MIC (in the test on Klebsiella pneumoniae; in test [7]; in the test on Pseudomonas aeruginosa; in the test on Escherichia coli) was less than 1 µg/mL throughout.
On to `O=C(O)c1ccc(-n2cc(/C=N/c3ccc(C(F)(F)F)cc3)c(-c3ccc4ccccc4c3)n2)cc1`, for which, in the test with Staphylococcus aureus [9], the MBC turned out to be 25 µg/mL (≈ 51.5 µM) and the MIC was 0.78 µg/mL (≈ 1.61 µM).
`Cc1nn(-c2ccc(Cl)cc2Cl)c(Oc2cccc(Cl)c2)c1C1N=C(N)NC(NCCc2ccccc2)=N1` (stereo unspecified): the minimal inhibitory concentration (MIC) in the test on Staphylococcus aureus [1] was determined as 0.5 µg/mL (≈ 0.879 µM).
As to `COc1cc(Cc2cnc(N)nc2N)cc(OC)c1OC` [TRIMETHOPRIM], the MIC with Staphylococcus aureus [1] stood at 4 µg/mL (≈ 13.8 µM).
The same measure, in the same setting: the result for `Cc1nn(-c2ccc(Cl)cc2Cl)c(Oc2ccc(Br)cc2)c1C1N=C(N)NC(NCCc2ccccc2)=N1` (stereo unspecified) reads 0.5 µg/mL (≈ 0.815 µM).
`CC[C@H]1OC(=O)[C@H](C)[C@@H](O[C@H]2C[C@@](C)(OC)[C@@H](O)[C@H](C)O2)[C@H](C)[C@@H](O[C@@H]2O[C@H](C)C[C@H](N(C)C)[C@H]2O)[C@](C)(O)C[C@@H](C)C(=O)[C@H](C)[C@@H](O)[C@]1(C)O` [ERYTHROMYCIN]: the MIC in the test on Staphylococcus aureus [2] turned out to be 32 µg/mL (≈ 43.6 µM).
In the case of `O=C(/C=C/c1cccc([N+](=O)[O-])c1)N1N=C(c2ccncc2)OC1c1cn(-c2ccccc2)nc1-c1ccc(F)cc1` (stereo unspecified), the MIC with Staphylococcus aureus [4] and in the test with Staphylococcus aureus [5] was more than 50 µg/mL each time.
For `NC(=O)c1cnn(-c2ccc([N+](=O)[O-])cc2[N+](=O)[O-])c1NC(=O)c1ccc(Cl)cc1`, in the test on Staphylococcus aureus [2], the MIC is 39 µg/mL (≈ 90.5 µM).
For `Cc1cc(O)c(C(=O)c2cc(C(F)(F)F)n[nH]2)cc1Cl`, the minimum inhibitory concentration (MIC) in the test on Staphylococcus aureus [3] was less than 0.125 µg/mL.
As for `CCCn1ncc2c3c(C#N)c4ccc(Br)cc4nc3ccc21`, in the test on Staphylococcus aureus [6], the MIC is 1 µg/mL (≈ 2.74 µM).
The same measure, in the same setting: the result for `Cn1ncc2c3c(C#N)c4ccc(Br)cc4nc3ccc21` reads 2 µg/mL (≈ 5.93 µM).
Regarding `Clc1ccccc1-c1nn(-c2ccccc2)cc1-c1nc2ccccn2c1Cc1ccccc1`, the MIC (with Klebsiella pneumoniae; in test [7]; in the test with Pseudomonas aeruginosa; in the test on Escherichia coli) was less than 1 µg/mL throughout.
In the case of `O=C(O)c1ccc(-n2cc(/C=N/c3cccc(Cl)c3F)c(-c3ccc4ccccc4c3)n2)cc1`, in the test with Staphylococcus aureus [9], the minimum bactericidal concentration (MBC) was 12.5 µg/mL (≈ 26.6 µM) and the MIC worked out at 0.78 µg/mL (≈ 1.66 µM).
As to `Cc1nn(-c2ccccc2Cl)c2c1C(C(=O)O)CC=C(C(=O)O)N2` (stereo unspecified), the minimum inhibitory concentration (MIC) in the test on Staphylococcus aureus [8] is more than 500 µg/mL.
Still for that read-out and setting: the result for `Cc1nn(-c2ccccc2)c2c1C(C(=O)O)CC=C(C(=O)O)N2` (stereo unspecified) reads more than 500 µg/mL.
With `O=C(c1cc(C(F)(F)F)n[nH]1)c1cc(Cl)cc(Cl)c1O`, the MIC in the test with Staphylococcus aureus [3] was less than 0.125 µg/mL.
`Cc1ccc(Oc2c(C3N=C(N)NC(NCCc4ccccc4)=N3)c(C)nn2-c2ccc(Cl)cc2Cl)cc1` (stereo unspecified): the MIC in the test on Staphylococcus aureus [1] was 0.5 µg/mL (≈ 0.912 µM).
In the case of `Cc1onc(-c2ccccc2Cl)c1C(=O)N[C@@H]1C(=O)N2[C@@H]1SC(C)(C)[C@@H]2C(=O)O` [CLOXACILLIN], in the test with Staphylococcus aureus [2], the MIC stood at 94 µg/mL (≈ 216 µM).
`Cc1nn(-c2ccc(Cl)cc2Cl)c(Oc2cccc(C(F)(F)F)c2)c1C1N=C(N)NC(NCCc2ccccc2)=N1` (stereo unspecified): the minimum inhibitory concentration (MIC) in the test on Staphylococcus aureus [1] amounted to 0.5 µg/mL (≈ 0.83 µM).
In the case of `CC1(C)S[C@@H]2[C@H](NC(=O)[C@H](N)c3ccccc3)C(=O)N2[C@H]1C(=O)O` [AMPICILLIN], in the test with Staphylococcus aureus [6], the minimum inhibitory concentration (MIC) came to 62 µg/mL (≈ 177 µM).
Same read-out and setting: the result for `CCn1ncc2c3c(C#N)c4ccc(Br)cc4nc3ccc21` reads 2 µg/mL (≈ 5.69 µM).
The same measure, in the same setting: the figure for `CCCn1ncc2c3c(C#N)c4ccccc4nc3ccc21` is 3 µg/mL (≈ 10.5 µM).
Consider `Oc1ccccc1-c1nn(-c2ccccc2)cc1-c1nc2ccccn2c1Cc1ccccc1`, for which the MIC (in the test with Klebsiella pneumoniae; in [7]; with Pseudomonas aeruginosa; with Escherichia coli) was less than 1 µg/mL throughout.
Take `Cc1nn(-c2ccc(Cl)cc2)c2c1C(C(=O)O)CC=C(C(=O)O)N2` (stereo unspecified): in the test on Staphylococcus aureus [8], the MIC is more than 500 µg/mL.
As for `Cc1ccc(O)c(C(=O)c2cc(C(F)(F)F)n[nH]2)c1`, in the test on Staphylococcus aureus [3], the MIC is less than 0.125 µg/mL.
As to `Cc1cc(NS(=O)(=O)c2ccc(N)cc2)no1` [SULFAMETHOXAZOLE], the MIC in the test with Staphylococcus aureus [6] was 16 µg/mL (≈ 63.2 µM).
Turning to `CC(C)Cn1ncc2c3c(C#N)c4ccc(Br)cc4nc3ccc21`, the minimal inhibitory concentration (MIC) in the test on Staphylococcus aureus [6] was found to be 6 µg/mL (≈ 15.8 µM).
Take `NC(=O)c1cnn(-c2ccc([N+](=O)[O-])cc2[N+](=O)[O-])c1NC(=O)c1ccc(Br)cc1`: the MIC in the test with Staphylococcus aureus [2] was 29.4 µg/mL (≈ 61.9 µM).
